Reference: PMC2617778, “Discovery of a Novel Activator of KCNQ1-KCNE1 K^+ Channel Complexes” (PLoS ONE, 2009)
Blank lines part the entries; values can stand above or below the molecule they belong to.

Tests used:
Format in all cases: cell-based
KCNQ4 (Q4) = target: T1, KCNQ4 (Q4) (Homo sapiens, UniProt P56696); experiment: two-electrode voltage clamp, Xenopus oocytes; delta gmax on washout, hyperbola fit; conditions: read-out: Phenylboronic Acid (PBA) / EC50
T1 construct: homotetramer expressed in Xenopus laevis oocytes
T1 sequence (P56696 1-695): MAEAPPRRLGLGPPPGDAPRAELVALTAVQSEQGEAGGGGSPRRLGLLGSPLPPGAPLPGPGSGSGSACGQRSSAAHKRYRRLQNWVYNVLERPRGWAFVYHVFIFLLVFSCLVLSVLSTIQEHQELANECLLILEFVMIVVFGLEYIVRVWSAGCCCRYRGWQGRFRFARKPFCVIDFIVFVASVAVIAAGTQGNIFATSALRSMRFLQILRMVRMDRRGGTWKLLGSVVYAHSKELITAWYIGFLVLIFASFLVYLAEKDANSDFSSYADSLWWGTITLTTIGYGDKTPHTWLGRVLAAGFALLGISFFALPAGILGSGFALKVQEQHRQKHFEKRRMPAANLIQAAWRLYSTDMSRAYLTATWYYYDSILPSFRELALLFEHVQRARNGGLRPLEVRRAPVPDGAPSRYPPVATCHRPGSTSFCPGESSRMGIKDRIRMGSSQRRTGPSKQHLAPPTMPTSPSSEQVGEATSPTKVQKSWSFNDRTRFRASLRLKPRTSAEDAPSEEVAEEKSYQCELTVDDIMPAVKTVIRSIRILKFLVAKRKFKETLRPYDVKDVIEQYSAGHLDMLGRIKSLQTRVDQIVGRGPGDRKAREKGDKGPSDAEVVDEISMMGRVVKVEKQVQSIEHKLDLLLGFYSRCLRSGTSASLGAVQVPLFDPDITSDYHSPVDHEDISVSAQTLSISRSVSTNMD
Excerpt: two-electrode voltage clamp, Xenopus oocytes; delta gmax on washout, hyperbola fit on KCNQ4 (Q4)

Q2/Q3 (KCNQ2/3) [1] = target: T2, Q2/Q3 (KCNQ2/3) (Homo sapiens, UniProt O43525+O43526); experiment: as above; conditions: read-out: Phenylboronic Acid (PBA) / EC50
T2 construct: heterotetramer; equal mRNA amounts of both subunits in Xenopus laevis oocytes
Excerpt: two-electrode voltage clamp, Xenopus oocytes; delta gmax on washout, hyperbola fit on Q2/Q3 (KCNQ2/3)

[2] = target: T3, Q1/E1 (KCNQ1/KCNE1 complex) (Homo sapiens, UniProt P51787); experiment: two-electrode voltage clamp, Xenopus oocytes; conditions: inhibitor, ND96, pH 7.6, +40 mV, 2 s pulse
T3 construct: with Potassium voltage-gated channel subfamily E member 1

Q2/Q3 (KCNQ2/3) [3] = target: T2, Q2/Q3 (KCNQ2/3); experiment: two-electrode voltage clamp, Xenopus oocytes; tail-current Boltzmann fit; conditions: activator; 10 mM; ND96, pH 7.6
Excerpt: two-electrode voltage clamp, Xenopus oocytes; tail-current Boltzmann fit on Q2/Q3 (KCNQ2/3)

[4] = target: T4, Q1/E3 (KCNQ1/KCNE3 complex) (Homo sapiens, UniProt P51787); experiment: as above; conditions: activator (raises current, no V1/2 shift); 10 mM; KD50 (50 mM K+), pH 7.6
T4 construct: with Potassium voltage-gated channel subfamily E member 3
T4 sequence (P51787 1-676): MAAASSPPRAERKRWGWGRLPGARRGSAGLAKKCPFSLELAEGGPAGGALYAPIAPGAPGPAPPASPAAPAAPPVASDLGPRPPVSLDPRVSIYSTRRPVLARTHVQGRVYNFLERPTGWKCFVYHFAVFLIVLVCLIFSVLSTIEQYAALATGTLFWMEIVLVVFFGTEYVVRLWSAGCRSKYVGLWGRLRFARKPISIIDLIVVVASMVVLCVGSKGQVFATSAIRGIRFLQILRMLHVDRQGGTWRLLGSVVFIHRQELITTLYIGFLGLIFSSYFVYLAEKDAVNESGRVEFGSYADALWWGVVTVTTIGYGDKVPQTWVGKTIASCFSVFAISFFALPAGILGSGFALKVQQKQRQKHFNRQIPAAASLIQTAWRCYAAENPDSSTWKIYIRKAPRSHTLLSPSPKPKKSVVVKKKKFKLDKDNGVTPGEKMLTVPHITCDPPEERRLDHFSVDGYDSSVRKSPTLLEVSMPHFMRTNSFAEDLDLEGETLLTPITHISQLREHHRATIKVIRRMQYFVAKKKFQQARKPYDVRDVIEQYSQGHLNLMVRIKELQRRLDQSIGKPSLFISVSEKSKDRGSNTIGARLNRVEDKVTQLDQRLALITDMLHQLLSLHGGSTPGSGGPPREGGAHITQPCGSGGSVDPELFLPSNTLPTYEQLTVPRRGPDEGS
T4 sequence (Q9Y6H6 1-103 partner): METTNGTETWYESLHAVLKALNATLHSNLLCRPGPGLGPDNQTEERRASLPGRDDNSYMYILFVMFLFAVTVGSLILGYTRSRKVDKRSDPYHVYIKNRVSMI
Excerpt: two-electrode voltage clamp, Xenopus oocytes; tail-current Boltzmann fit on Q1/E3 (KCNQ1/KCNE3 complex)

[5] = target: T3, Q1/E1 (KCNQ1/KCNE1 complex); experiment: as above; conditions: reversible activator; 10 mM; ND96, pH 7.6
Excerpt: two-electrode voltage clamp, Xenopus oocytes; tail-current Boltzmann fit on Q1/E1 (KCNQ1/KCNE1 complex)

T2 sequence (O43526 whole entry): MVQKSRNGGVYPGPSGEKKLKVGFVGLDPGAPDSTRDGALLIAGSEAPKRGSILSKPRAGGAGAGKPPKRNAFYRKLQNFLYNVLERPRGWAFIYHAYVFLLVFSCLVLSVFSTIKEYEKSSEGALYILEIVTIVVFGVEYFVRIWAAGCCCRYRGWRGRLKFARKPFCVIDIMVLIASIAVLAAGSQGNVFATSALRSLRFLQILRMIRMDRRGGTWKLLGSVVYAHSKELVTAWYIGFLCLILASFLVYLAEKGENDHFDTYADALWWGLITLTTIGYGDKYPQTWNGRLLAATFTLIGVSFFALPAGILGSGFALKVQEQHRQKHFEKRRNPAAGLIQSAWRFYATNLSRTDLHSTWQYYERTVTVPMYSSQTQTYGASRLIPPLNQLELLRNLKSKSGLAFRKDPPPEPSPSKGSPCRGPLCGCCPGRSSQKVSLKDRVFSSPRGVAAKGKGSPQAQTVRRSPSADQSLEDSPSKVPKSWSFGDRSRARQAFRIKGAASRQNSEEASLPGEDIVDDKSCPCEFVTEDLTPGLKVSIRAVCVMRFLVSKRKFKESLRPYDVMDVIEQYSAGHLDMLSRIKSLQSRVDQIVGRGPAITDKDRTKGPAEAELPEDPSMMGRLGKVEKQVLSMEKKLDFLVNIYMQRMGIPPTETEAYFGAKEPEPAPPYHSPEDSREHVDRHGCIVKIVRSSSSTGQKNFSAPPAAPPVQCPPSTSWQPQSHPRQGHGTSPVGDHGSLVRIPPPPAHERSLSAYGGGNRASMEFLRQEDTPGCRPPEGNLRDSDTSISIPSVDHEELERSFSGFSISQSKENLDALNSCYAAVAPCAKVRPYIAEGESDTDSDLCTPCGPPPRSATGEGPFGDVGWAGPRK
T2 sequence (O43525 whole entry): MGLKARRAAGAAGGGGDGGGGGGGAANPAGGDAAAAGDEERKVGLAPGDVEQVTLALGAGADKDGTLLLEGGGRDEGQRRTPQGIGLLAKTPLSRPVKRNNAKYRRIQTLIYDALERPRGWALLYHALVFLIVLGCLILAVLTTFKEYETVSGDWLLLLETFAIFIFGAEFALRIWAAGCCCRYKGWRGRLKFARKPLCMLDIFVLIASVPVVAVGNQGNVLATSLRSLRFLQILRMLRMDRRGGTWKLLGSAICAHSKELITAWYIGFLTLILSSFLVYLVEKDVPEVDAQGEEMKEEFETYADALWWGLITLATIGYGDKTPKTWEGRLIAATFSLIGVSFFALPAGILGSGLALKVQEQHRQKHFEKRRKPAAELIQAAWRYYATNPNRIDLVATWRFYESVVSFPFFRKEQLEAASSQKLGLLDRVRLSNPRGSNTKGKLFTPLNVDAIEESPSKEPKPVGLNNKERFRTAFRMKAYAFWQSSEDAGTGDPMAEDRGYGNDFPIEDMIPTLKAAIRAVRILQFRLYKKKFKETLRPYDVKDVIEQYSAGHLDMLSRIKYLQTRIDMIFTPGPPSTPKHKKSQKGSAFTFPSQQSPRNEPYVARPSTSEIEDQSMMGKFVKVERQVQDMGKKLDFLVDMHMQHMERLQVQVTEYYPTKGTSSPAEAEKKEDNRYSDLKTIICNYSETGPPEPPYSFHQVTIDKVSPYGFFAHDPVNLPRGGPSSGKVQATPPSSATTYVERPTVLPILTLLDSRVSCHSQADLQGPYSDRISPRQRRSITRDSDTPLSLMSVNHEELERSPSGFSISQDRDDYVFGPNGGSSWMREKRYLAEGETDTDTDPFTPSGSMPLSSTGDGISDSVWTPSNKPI

- EC50 (KCNQ4 (Q4)): > 10 mM
- EC50 (Q2/Q3 (KCNQ2/3) [1]): 3.7 ± 1.4 mM
SMILES: OB(O)c1ccccc1 [PBA, phenylboronic acid]

SMILES: O=C(O)c1ccccc1 [benzoic acid]
- reversible inhibition at 10 mM [2]: Perfusion of benzoic acid reversibly inhibited Q1/E1

- Phenylboronic Acid (PBA) / Δ V1/2 (mV) (Q2/Q3 (KCNQ2/3) [3]): −5.9±2.9 mV
- Phenylboronic Acid (PBA) / Δ V1/2 (mV) [4]: 2.7±4.9 mV
- Phenylboronic Acid (PBA) / Δ V1/2 (mV) [5]: −4.4±2.4 mV
SMILES: OCc1ccccc1 [benzyl alcohol]
